In general, IC50 refers to the concentration needed to halve the response being measured.

For the first assay, the target named is T1, IGF1R Ba/F3 (Homo sapiens, UniProt P08069). The assay can be described thus: Ba/F3 Cell Viability Inhibition Assay (Tel-TK transformed Ba/F3 lines). Type of assay: cell-based, murine. Further details: the printed alternative. The note with it: Tel-TK (IGF1R) transformed Ba/F3 cells, 48 hours incubation, cell viability (Britelite luminescence). A digest of the protocol: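 Murine pro-B Ba/F3 cells made IL-3-independent by TEL(1-375)- or BCR-fused tyrosine kinases; parental line run with 1 ng/ml IL-3 (final). 3750 cells/well exposed to DMSO-diluted compound for 48 h at 37 °C; viability read by Britelite luminescence. IC50 from logistic fit, concentration reducing viability to 50% of DMSO control.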
T1 sequence (P08069 999-1274 limits assumed): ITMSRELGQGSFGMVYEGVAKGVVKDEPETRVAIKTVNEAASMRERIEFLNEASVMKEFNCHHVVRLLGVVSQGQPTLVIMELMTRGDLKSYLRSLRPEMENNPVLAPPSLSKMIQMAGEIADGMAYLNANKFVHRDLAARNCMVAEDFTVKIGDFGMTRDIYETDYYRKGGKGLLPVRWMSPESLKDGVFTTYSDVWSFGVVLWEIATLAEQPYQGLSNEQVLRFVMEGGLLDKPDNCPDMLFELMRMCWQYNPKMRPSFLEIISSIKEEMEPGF
On to `Cc1cc(Nc2nc(Nc3cc(C)c([C@H]4CC[C@H](N5CCOCC5)CC4)cc3F)ncc2C(F)(F)F)n[nH]1` [Compound 65, N2-(2-fluoro-5-methyl-4-((trans)-4-morpholinocyclohexyl)phenyl)-N4-(5-methyl-1H-pyrazol-3-yl)-5-(trifluoromethyl)pyrimidine-2,4-diamine], for which the IC50 came out at 32 nM. Same read-out and setting: the value for `Cc1cc(Nc2nc(Nc3ccc(C4CCN(CC(N)=O)CC4)c4ccccc34)ncc2Cl)n[nH]1` [Compound 86, 2-(4-(4-(5-chloro-4-(5-methyl-1H-pyrazol-3-ylamino)pyrimidin-2-ylamino)naphthalene-1-yl)piperidin-1-yl)acetamide] was 107 nM.

`Cc1cc(Nc2nc(Nc3cc(C)c(-c4ccc(O)nc4)cc3F)ncc2Cl)n[nH]1` [Compound 8, 5-(4-(5-chloro-4-(5-methyl-1H-pyrazol-3-ylamino)pyrimidin-2-ylamino)-5-fluoro-2-methylphenyl)pyridin-2-ol] yielded a concentration for half-maximal inhibition (IC50) of 55 nM. With `Cc1cc(-c2cc(C)c(Nc3ncc(Cl)c(Nc4cc(C)[nH]n4)n3)cc2C)[nH]n1` [Compound 22, 5-chloro-N2-(2,5-dimethyl-4-(3-methyl-1H-pyrazol-5-yl)phenyl)-N4-(5-methyl-1H-pyrazol-3-yl)pyrimidine-2,4-diamine], the IC50 is 166 nM. Still for that read-out and setting: the same measure for `Cc1cc(Nc2nc(Nc3cc(C)c([C@H]4CC[C@H](N5C[C@@H](O)[C@H](O)C5)CC4)cc3F)ncc2C(F)(F)F)n[nH]1` [Compound 70, (3R,4R)-1-((trans)-4-(5-fluoro-2-methyl-4-(4-(5-methyl-1H-pyrazol-3-ylamino)-5-(trifluoromethyl)pyrimidin-2-ylamino)phenyl)cyclohexyl)pyrrolidine-3,4-diol]: 248 nM; for `Cc1cc(Nc2nc(Nc3cc(C)c([C@H]4CC[C@H](N5CCOCC5)CC4)cc3F)ncc2Cl)n[nH]1` [Compound 50, Trans-5-chloro-N2-(2-fluoro-5-methyl-4-(4-morpholinocyclohexyl)phenyl)-N4-(5-methyl-1H-pyrazol-3-yl)pyrimidine-2,4-diamine]: 31 nM; for `Cc1cc(Nc2nc(Nc3ccc(C4CCNCC4)c4ccccc34)ncc2Cl)n[nH]1` [Compound 85, 5-chloro-N^4-(5-methyl-1H-pyrazol-3-yl)-N^2-(4-(piperidin-4-yl)naphthalene-1-yl)pyrimidine-2,4-diamine]: 493 nM.

On to `CNC(=O)c1ccc(-c2cc(F)c(Nc3ncc(Cl)c(Nc4cc(C)[nH]n4)n3)cc2C)cn1` [Compound 4, 5-(4-(5-chloro-4-(5-methyl-1H-pyrazol-3-ylamino)pyrimidin-2-ylamino)-5-fluoro-2-methylphenyl)-N-methylpicolinamide], for which the IC50 was 89 nM. Still for that read-out and setting: the value for `Cc1cc(Nc2nc(Nc3cc(C)c(-c4cnco4)cc3C)ncc2Cl)n[nH]1` [Compound 20, 5-chloro-N2-(2,5-dimethyl-4-(oxazol-5-yl)phenyl)-N4-(5-methyl-1H-pyrazol-3-yl)pyrimidine-2,4-diamine] was 109 nM; that for `CO/N=C(\C)c1cc(C)c(Nc2ncc(Cl)c(Nc3cc(C)[nH]n3)n2)cc1C` [Compound 34, 1-(4-(5-chloro-4-(5-methyl-1H-pyrazol-3-ylamino)pyrimidin-2-ylamino)-2,5-dimethylphenyl)ethanone O-methyl oxime] was 269 nM; that for `Cc1cc(Nc2nc(Nc3cc(C)c(-c4ccoc4)cc3F)ncc2Cl)n[nH]1` [Compound 11, 5-chloro-N2-(2-fluoro-4-(furan-3-yl)-5-methylphenyl)-N4-(5-methyl-1H-pyrazol-3-yl)pyrimidine-2,4-diamine] was 683 nM. With `Cc1cc2c(Nc3ncc(Cl)c(Nc4cc(C)[nH]n4)n3)cccc2nn1` [Compound 83, 5-chloro-N4-(5-methyl-1H-pyrazol-3-yl)-N2-(3-methylcinnolin-5-yl)pyrimidine-2,4-diamine], the 50% inhibitory concentration (IC50) is 1450 nM. Take `CCN(CC)[C@H]1CC[C@@H](c2cc(F)c(Nc3ncc(Cl)c(Nc4cc(C)[nH]n4)n3)cc2C)CC1` [Compound 56, 5-chloro-N2-(4-((cis)-4-(diethylamino)cyclohexyl)-2-fluoro-5-methylphenyl)-N4-(5-methyl-1H-pyrazol-3-yl)pyrimidine-2,4-diamine]: half-maximal inhibition (IC50) was put at 25 nM. Same read-out and setting: the same measure for `Cc1cc(Nc2nc(Nc3cc(C)c([C@H]4CC[C@@H](N5CCCCC5)CC4)cc3F)ncc2Cl)n[nH]1` [Compound 48, Cis-5-chloro-N2-(2-fluoro-5-methyl-4-(4-(piperidin-1-yl)cyclohexyl)phenyl)-N4-(5-methyl-1H-pyrazol-3-yl)pyrimidine-2,4-diamine]: 21 nM. For `Cc1cc(Nc2nc(Nc3cc(C)c([C@H]4CC[C@H](O)CC4)cc3C)ncc2Cl)n[nH]1` [Compound 45, trans-4-(4-(5-chloro-4-(5-rnethyl-1H-pyrazol-3-ylamino)pyrimidin-2-ylamino)-2,5-dimethylphenyl)cyclohexanol], the IC50 was 14 nM. In turn, `CCN(CC)[C@H]1CC[C@H](c2cc(F)c(Nc3ncc(Cl)c(Nc4cc(C)[nH]n4)n3)cc2C)CC1` [Compound 57, 5-chloro-N2-(4-((trans)-4-(diethylamino)cyclohexyl)-2-fluoro-5-methylphenyl)-N4-(5-methyl-1H-pyrazol-3-yl)pyrimidine-2,4-diamine] yielded a 50% inhibitory concentration (IC50) of 31 nM.

A further assay concerns the target T1, IGF1R Ba/F3. The assay is described as above. The format is cell-based, murine. More on the design: most likely, as the lines are called Tel-TK) or BCR (P11274). Conditions: Tel-TK (IGF1R) transformed Ba/F3 cells, 48 hours incubation, cell viability (Britelite luminescence). The source holds these as a separate data set. From the text: Ba/F3 is a murine IL-3-dependent pro-B lymphoma cell line. Parental Ba/F3 cells are used to generate a panel of sublines whose proliferation and survival is rendered IL-3-independent by stable transduction with individual tyrosine kinases activated by fusion with the amino-terminal portion of TEL (amino acid 1-375) or BCR. In order to generate Ba/F3 cell lines transformed by Tel-Tyrosine Kinase (TK) fusions, parental Ba/F3 cells are infected with a retrovirus harboring each TEL-fusion kinase and subjected to puromycin selection and IL-3 withdrawal to obtain IL-3-independent, transformed Ba/F3 cells.
Each transformed Ba/F3 cells are cultured in RPMI-1640 media (Gibco Cat #11875093, Carlsbad, Calif.) supplemented with 10% FBS (Hyclone Cat #SV30014.03, Logan, Utah), 4.5 g/L glucose (Sigma #G5400, St.Louis, Mo.), 1.5 g/L sodium bicarbonate (Biowhittaker #17-613E, Walkersville, Md.) and Pen/Strep (Gibco #10378-016, Carlsbad, Calif.). Cells are splitted twice weekly.
The potency of test compounds against various Tel-TK transformed Ba/F3 lines is determined as follows. Exponentially growing BaF3 Tel-TK cells are diluted in fresh medium to 75,000 cells/mL and seeded into 384-well plates (3750 cells/well) at 50 μL/well using a gill liquid dispenser (BioTek, Winooski, Vt., USA). […] 25 μL Britelite (Perkin Elmer) is added and luminescence is quantified using Analyst GT (Molecular Devices). […]
Molecule `Cc1cc(Nc2nc(Nc3cc(C)c(-c4cccnc4)cc3C)ncc2Cl)n[nH]1` [Compound 13] had an IC50 of 29 nM.
